Experimental findings from ChEMBL document CHEMBL1138642, “In vitro advanced antimycobacterial screening of cobalt(II) and copper(II) complexes of fluorinated isonicotinoylhydrazones” (2004) are described below.

Holding throughout (format): functional
In assay [1] the test system is Mycobacterium tuberculosis. Description: Effective concentration required to reduce CFU of Mycobacterium tuberculosis Erdman (ATCC 35801) strain was determined in monolayers of mouse bone marrow macrophages; Range is 0.5-1.5.
The test system of assay [2] is Mycobacterium tuberculosis. Description: Effective concentration required to reduce CFU of Mycobacterium tuberculosis Erdman (ATCC 35801) strain was determined in monolayers of mouse bone marrow macrophages; […].
For assay [3], the system named is Mycobacterium tuberculosis. Description: Effective concentration required compared to that of Minimum inhibition concentration required against Mycobacterium tuberculosis H37Rv strain was determined; Range is 0.6-1.2.
Assay [4] has as its system Mycobacterium tuberculosis. The assay is described as follows: Effective concentration required to reduce CFU of Mycobacterium tuberculosis Erdman (ATCC 35801) strain was determined in monolayers of mouse bone marrow macrophages.
Assay [5] relates to Mycobacterium tuberculosis. The assay is described as follows: Minimum bactericidal concentration required against Mycobacterium tuberculosis H37Rv strain was determined in monolayers of mouse bone marrow macrophages.

≈ marks a conversion by molar mass, not a printed value.

In the case of `CO[C@H]1/C=C/O[C@@]2(C)Oc3c(C)c(O)c4c(O)c(c(/C=N/N5CCN(C)CC5)c(O)c4c3C2=O)NC(=O)/C(C)=C\C=C\[C@H](C)[C@H](O)[C@@H](C)[C@@H](O)[C@@H](C)[C@H](OC(C)=O)[C@@H]1C` [RIFAMPIN], in assay [1], the EC99 came out at 1.5 µg/mL. The compound also displayed an EC90 in assay [2] of 0.1 µg/mL (≈ 0.122 µM).

Consider `NNC(=O)c1ccncc1` [ISONIAZID], for which the EC90/MIC in assay [3] came out at 1.2. In assay [4], this compound had an EC90 of 0.03 µg/mL (≈ 0.219 µM) and an EC99 of 0.42 µg/mL. The compound also displayed an MBC in assay [5] of 0.1 µg/mL (≈ 0.729 µM).
